Key:
Format in all cases: in vivo
[1] = tested on: blackgrass (Alopecurus myosuroides); experiment: Test B postemergence; details: for Blackgrass plant response rating: 125 g ai/ha, scale 0 to 100 (0 no effect, 100 complete control); for Plant response rating, Blackgrass: 500 g ai/ha, scale 0 to 100
From the text: (§1) Seeds selected from barnyardgrass (Echinochloa crus-galli), Surinam grass (Brachiaria decumbens), cocklebur (Xanthium strumarium), corn (Zea mays), crabgrass (Digitaria sanguinalis), giant foxtail (Setaria faberii), lambsquarters (Chenopodium album), morningglory (Ipomoea coccinea), pigweed (Amaranthus retroflexus), velvetleaf (Abutilon theophrasti), and wheat (Triticum aestivum) were planted and treated preemergence with test chemicals formulated in a non-phytotoxic solvent mixture which included a surfactant.
(§2) At the same time, plants selected from these crop and weed species and also blackgrass (Alopecurus myosuroides) and wild oat (Avena fatua) were treated with postemergence applications of test chemicals formulated in the same manner. Plants ranged in height from 2 to 18 cm (1- to 4-leaf stage) for postemergence treatments. Plant species in the flooded paddy test consisted of rice (Oryza sativa), umbrella sedge (Cyperus difformis), duck salad (Heteranthera limosa) and barnyardgrass (Echinochloa crus-galli) grown to the 2-leaf stage for testing. Treated plants and controls were maintained in a greenhouse for 13 to 15 days, after which time all species were compared to controls and visually evaluated. Plant response ratings, summarized in Table B, are based on a scale of 0 to 100 where 0 is no effect and 100 is complete control. A dash (-) response means no test result.

wild oat (Avena fatua) = experiment: Test B postemergence; details: for Oat, Wild plant response rating: 125 g ai/ha, scale 0 to 100 (0 no effect, 100 complete control); for Plant response rating, Oat, Wild: 500 g ai/ha, scale 0 to 100
From the text: as §1, §2

[2] = tested on: wheat (Triticum aestivum); experiment: Test B pre/postemergence
From the text: as §1, §2

[3] = tested on: pigweed (Amaranthus retroflexus); experiment: Test B pre/postemergence
From the text: as §1, §2

[4] = tested on: morningglory (Ipomoea coccinea); experiment: Test B pre/postemergence
From the text: as §1, §2

corn (Zea mays) = experiment: Test B pre/postemergence
From the text: as §1, §2

[5] = tested on: giant foxtail (Setaria faberii); experiment: Test B pre/postemergence
From the text: as §1, §2

[6] = tested on: barnyardgrass (Echinochloa crus-galli); experiment: Test B pre/postemergence
From the text: as §1, §2

[7] = tested on: Surinam grass (Brachiaria decumbens); experiment: Test B pre/postemergence
From the text: as §1, §2

[8] = tested on: crabgrass (Digitaria sanguinalis); experiment: Test B pre/postemergence
From the text: as §1, §2

[9] = tested on: cocklebur (Xanthium strumarium); experiment: Test B pre/postemergence
From the text: as §1, §2

[10] = tested on: velvetleaf (Abutilon theophrasti); experiment: Test B pre/postemergence
From the text: as §1, §2

[11] = tested on: lambsquarters (Chenopodium album); experiment: Test B pre/postemergence; details: Postemergence; for Lambsquarters plant response rating: 125 g ai/ha, scale 0 to 100 (0 no effect, 100 complete control); for Plant response rating, Lambsquarters: 500 g ai/ha, scale 0 to 100
From the text: as §1, §2

[12] = Postemergence, 125 g ai/ha, scale 0 to 100 (0 no effect, 100 complete control)
[13] = Postemergence, 500 g ai/ha, scale 0 to 100
[14] = Preemergence, 125 g ai/ha, scale 0 to 100 (0 no effect, 100 complete control)
[15] = Preemergence, 500 g ai/ha, scale 0 to 100 (0 no effect, 100 complete control)

CCOC(=O)c1nc(C2CC2)nc(N2CCCC2)c1Br [Compound 56]
Blackgrass plant response rating [1]: 0
Plant response rating, Blackgrass [1]: 20
Oat, Wild plant response rating (wild oat (Avena fatua)): 0
Plant response rating, Oat, Wild (wild oat (Avena fatua)): 20
Wheat plant response rating [2, 12]: 0
Plant response rating, Wheat [2, 13]: 0
Plant response rating, Wheat [2, 14]: 0
Plant response rating, Wheat [2, 15]: 0
Pigweed plant response rating [3, 12]: 50
Plant response rating, Pigweed [3, 13]: 70
Plant response rating, Pigweed [3, 15]: 80
Morningglory plant response rating [4, 12]: 0
Plant response rating, Morningglory [4, 13]: 50
Plant response rating, Morningglory [4, 15]: 20
Corn plant response rating (corn (Zea mays); [12]): 0
Plant response rating, Corn (corn (Zea mays); [13]): 0
Plant response rating, Corn (corn (Zea mays); [14]): 0
Plant response rating, Corn (corn (Zea mays); [15]): 0
Foxtail, Giant plant response rating [5, 12]: 0
Plant response rating, Foxtail, Giant [5, 13]: 0
Plant response rating, Foxtail, Giant [5, 14]: 0
Plant response rating, Foxtail, Giant [5, 15]: 0
Barnyardgrass plant response rating [6, 12]: 0
Plant response rating, Barnyardgrass [6, 13]: 30
Plant response rating, Barnyardgrass [6, 14]: 0
Plant response rating, Barnyardgrass [6, 15]: 0
Surinam Grass plant response rating [7, 12]: 0
Plant response rating, Surinam Grass [7, 13]: 0
Plant response rating, Surinam Grass [7, 14]: 0
Plant response rating, Surinam Grass [7, 15]: 0
Crabgrass plant response rating [8, 12]: 0
Plant response rating, Crabgrass [8, 13]: 0
Plant response rating, Crabgrass [8, 14]: 0
Plant response rating, Crabgrass [8, 15]: 0
Cocklebur plant response rating [9, 12]: 0
Plant response rating, Cocklebur [9, 13]: 20
Plant response rating, Cocklebur [9, 14]: 0
Plant response rating, Cocklebur [9, 15]: 30
Velvetleaf plant response rating [10, 12]: 0
Plant response rating, Velvetleaf [10, 13]: 0
Plant response rating, Velvetleaf [10, 14]: 0
Plant response rating, Velvetleaf [10, 15]: 30
Lambsquarters plant response rating [11]: 20
Plant response rating, Lambsquarters [11]: 30

CCOC(=O)c1nc(C2CC2)nc(NNC(C)=O)c1Br [Compound 126]
Blackgrass plant response rating [1]: 0
Plant response rating, Blackgrass [1]: 0
Oat, Wild plant response rating (wild oat (Avena fatua)): 0
Plant response rating, Oat, Wild (wild oat (Avena fatua)): 20
Wheat plant response rating [2, 12]: 0
Plant response rating, Wheat [2, 13]: 0
Plant response rating, Wheat [2, 14]: 0
Plant response rating, Wheat [2, 15]: 0
Pigweed plant response rating [3, 12]: 0
Plant response rating, Pigweed [3, 13]: 30
Plant response rating, Pigweed [3, 14]: 20
Plant response rating, Pigweed [3, 15]: 80
Morningglory plant response rating [4, 12]: 30
Plant response rating, Morningglory [4, 13]: 60
Plant response rating, Morningglory [4, 14]: 0
Plant response rating, Morningglory [4, 15]: 70
Corn plant response rating (corn (Zea mays); [12]): 0
Plant response rating, Corn (corn (Zea mays); [13]): 10
Plant response rating, Corn (corn (Zea mays); [14]): 0
Plant response rating, Corn (corn (Zea mays); [15]): 0
Foxtail, Giant plant response rating [5, 12]: 0
Plant response rating, Foxtail, Giant [5, 13]: 0
Plant response rating, Foxtail, Giant [5, 14]: 0
Plant response rating, Foxtail, Giant [5, 15]: 0
Barnyardgrass plant response rating [6, 12]: 0
Plant response rating, Barnyardgrass [6, 13]: 0
Plant response rating, Barnyardgrass [6, 14]: 0
Plant response rating, Barnyardgrass [6, 15]: 0
Surinam Grass plant response rating [7, 12]: 0
Plant response rating, Surinam Grass [7, 13]: 70
Plant response rating, Surinam Grass [7, 14]: 0
Plant response rating, Surinam Grass [7, 15]: 20
Crabgrass plant response rating [8, 12]: 0
Plant response rating, Crabgrass [8, 13]: 20
Plant response rating, Crabgrass [8, 14]: 80
Plant response rating, Crabgrass [8, 15]: 100
Cocklebur plant response rating [9, 12]: 0
Plant response rating, Cocklebur [9, 13]: 0
Plant response rating, Cocklebur [9, 14]: 0
Plant response rating, Cocklebur [9, 15]: 90
Velvetleaf plant response rating [10, 12]: 10
Plant response rating, Velvetleaf [10, 13]: 20
Plant response rating, Velvetleaf [10, 14]: 10
Plant response rating, Velvetleaf [10, 15]: 20
Lambsquarters plant response rating [11]: 30
Plant response rating, Lambsquarters [11]: 40

CCOC(=O)c1nc(C2CC2)nc(NOCc2ccccc2)c1Br [Compound 54]
Blackgrass plant response rating [1]: 40
Plant response rating, Blackgrass [1]: 40
Oat, Wild plant response rating (wild oat (Avena fatua)): 0
Plant response rating, Oat, Wild (wild oat (Avena fatua)): 40
Wheat plant response rating [2, 12]: 0
Plant response rating, Wheat [2, 13]: 20
Plant response rating, Wheat [2, 14]: 0
Plant response rating, Wheat [2, 15]: 0
Pigweed plant response rating [3, 12]: 80
Plant response rating, Pigweed [3, 13]: 90
Plant response rating, Pigweed [3, 14]: 100
Plant response rating, Pigweed [3, 15]: 100
Morningglory plant response rating [4, 12]: 80
Plant response rating, Morningglory [4, 13]: 90
Plant response rating, Morningglory [4, 14]: 0
Corn plant response rating (corn (Zea mays); [12]): 0
Plant response rating, Corn (corn (Zea mays); [13]): 20
Plant response rating, Corn (corn (Zea mays); [14]): 0
Plant response rating, Corn (corn (Zea mays); [15]): 0
Foxtail, Giant plant response rating [5, 12]: 20
Plant response rating, Foxtail, Giant [5, 13]: 30
Plant response rating, Foxtail, Giant [5, 14]: 0
Plant response rating, Foxtail, Giant [5, 15]: 0
Barnyardgrass plant response rating [6, 12]: 0
Plant response rating, Barnyardgrass [6, 13]: 70
Plant response rating, Barnyardgrass [6, 14]: 0
Plant response rating, Barnyardgrass [6, 15]: 40
Surinam Grass plant response rating [7, 12]: 0
Plant response rating, Surinam Grass [7, 13]: 0
Plant response rating, Surinam Grass [7, 14]: 0
Plant response rating, Surinam Grass [7, 15]: 0
Crabgrass plant response rating [8, 12]: 20
Plant response rating, Crabgrass [8, 13]: 30
Plant response rating, Crabgrass [8, 14]: 0
Plant response rating, Crabgrass [8, 15]: 0
Cocklebur plant response rating [9, 12]: 20
Plant response rating, Cocklebur [9, 13]: 80
Plant response rating, Cocklebur [9, 14]: 50
Plant response rating, Cocklebur [9, 15]: 90
Velvetleaf plant response rating [10, 12]: 50
Plant response rating, Velvetleaf [10, 13]: 60
Plant response rating, Velvetleaf [10, 14]: 10
Plant response rating, Velvetleaf [10, 15]: 80
Lambsquarters plant response rating [11]: 80
Plant response rating, Lambsquarters [11]: 90

— patent publication US8802597B2, “Herbicidal pyrimidines” (E I du Pont de Nemours and Company, priority 2003, dated 2014)
